# B1: human lyase (Homo sapiens) (protein)
# chain: MWELVALLLLTLAYLFWPKRRCPGAKYPKSLLSLPLVGSLPFLPRHGHMHNNFFKLQKKYGPIYSVRMGTKTTVIVGHHQLAKEVLIKKGKDFSGRPQMATLDIASNNRKGIAFADSGAHWQLHRRLAMATFALFKDGDQKLEKIICQEISTLCDMLATHNGQSIDISFPVFVAVTNVISLICFNTSYKNGDPELNVIQNYNEGIIDNLSKDSLVDLVPWLKIFPNKTLEKLKSHVKIRNDLLNKILENYKEKFRSDSITNMLDTLMQAKMNSDNGNAGPDQDSELLSDNHILTTIGDIFGAGVETTTSVVKWTLAFLLHNPQVKKKLYEEIDQNVGFSRTPTISDRNRLLLLEATIREVLRLRPVAPMLIPHKANVDSSIGEFAVDKGTEVIINLWALHHNEKEWHQPDQFMPERFLNPAGTQLISPSVSYLPFGAGPRSCIGEILARQELFLIMAWLLQRFDLEVPDDGQLPSLEGIPKVVFLIDSFKVKIKVRQAWREAQAEGST
# notes: microsomes were isolated from human, cynomolgus monkey, dog, rat or athymic nude mouse testicular tissue; from tissue; host or cells: human testis microsomes (therapeutic orchiectomies)
# B2: cynomolgus monkey C17,20 lyase (Macaca fascicularis) (protein)
# chain: MWELVALLLLTLAYLFWPKRRCPGAKYPKSLLSLPLVGSLPFLPRHGHMHNNFFKLQKKYGPIYSVRMGTKTTVIVGHHQLAKEVLIKKGKDFSGRPQVTTLDILSNNRKGIAFADYGAHWQLHRRLAMATFALFKDGDQKLEKIICQEISTLCDMLATHNGQTIDISFPVFVAITNVISLICFNISYKNGDPELKIVHNYNEGIIDSLGKESLVDLFPWLKVFPNKTLEKLKRHVKTRNDLLTKIFENYKEKFHSDSITNMLDVLMQAKMNSDNGNAGPDQDSELLSDNHILTTIGDIFGAGVETTTSVVKWIVAFLLHNPQVKKKLYEEIDQNVGFSRTPTISDRNRLLLLEATIREVLRIRPVAPMLIPHKANVDSSIGEFAVDKGTHVIINLWALHHNEKEWHQPDQFMPERFLNPAGTQLISPSLSYLPFGAGPRSCIGEILARQELFLIMAWLLQRFDLEVPDDGQLPSLEGNPKVVFLIDSFKVKIKVRQAWREAQAEGST
# notes: microsomes were isolated from human, cynomolgus monkey, dog, rat or athymic nude mouse testicular tissue; from tissue; host or cells: cynomolgus monkey testis microsomes
# What was measured:
# rat lyase = experiment: Inhibition of rat steroid C17,20 lyase (testicular microsomes); assay type: biochemical; details: substrate, rat enzyme
# Procedure: (§1) The activity of the present compounds as inhibitors of steroid C17,20 lyase was established using microsomal preparations of the steroid C17,20 lyase enzyme from human or laboratory animal testes. Human testes used for this purpose were obtained from therapeutic orchiectomies. Specifically, microsomes were isolated from human, cynomolgus monkey, dog, rat or athymic nude mouse testicular tissue. The compound to be tested was dissolved in dimethyl sulfoxide and diluted in 0.05M potassium phosphate buffer to give the desired concentrations of the test compound. The potassium phosphate buffer was at pH 7.4 for the human, monkey and dog lyase assays and at pH 7.2 for the rat and athymic nude mouse lyase assays. Assays also contained 1 mM NADPH, 5 mM glucose-6-phosphate, 1 IU/ml glucose-6-phosphate dehydrogenase (an NADPH regenerating system) and microsomal protein in a total volume of 0.2 mL. Control assays contained all components including dimethyl sulfoxide, but with no test compound. All assays were performed in duplicate. […] Radioactivity in the steroid peaks was measured by a Radiomatic Model HS Flo-One detector.
# (§2) The enzyme activity for each incubate was calculated from the percent conversion of substrate to products, and the results were expressed as percent inhibition of control. […] The Ki and kinact for time dependent inhibitors were determined by graphical analysis of Kitz-Wilson plots. […]
# nude mouse lyase = experiment: Inhibition of athymic nude mouse steroid C17,20 lyase (testicular microsomes); assay type: biochemical; details: substrate, athymic nude mouse enzyme
# Procedure: as §1, §2
# canine lyase = experiment: Inhibition of canine steroid C17,20 lyase (testicular microsomes); assay type: biochemical, dog; details: substrate, dog lyase
# Procedure: as §1, §2
# [1] = substrate: CC(=O)[C@@]1(O)CC[C@H]2[C@@H]3CC=C4C[C@@H](O)CC[C@]4(C)[C@H]3CC[C@@]21C; experiment: Inhibition of human steroid C17,20 lyase (testicular microsomes); assay type: biochemical; details: other: substrate, 34.0 °C
# Procedure: as §1, §2
# [2] = substrate: CC(=O)[C@@]1(O)CC[C@H]2[C@@H]3CC=C4C[C@@H](O)CC[C@]4(C)[C@H]3CC[C@@]21C; experiment: Inhibition of cynomolgus monkey steroid C17,20 lyase (testicular microsomes), time dependent, Kitz-Wilson; assay type: biochemical; details: other: substrate, 34.0 °C
# Procedure: as §1, §2
molecule,measurement,setting,value
"CC(=O)[C@@]1(O)CC[C@H]2[C@@H]3CCC4=CC(=O)CC[C@]4(C)[C@H]3CC[C@@]21C [17α-hydroxyprogesterone, reference compound]",Km,rat lyase,0.1 µM
same,Km,nude mouse lyase,0.03 µM
"CC(=O)[C@@]1(O)CC[C@H]2[C@@H]3CC=C4C[C@@H](O)CC[C@]4(C)[C@H]3CC[C@@]21C [17α-hydroxypregnenolone, reference compound]",Km,canine lyase,0.06 µM
B1,Km,[1],0.30 µM
B2,Km,[2],0.11 µM

# From patent US5486511A, “4-amino-17β-(cyclopropyloxy)androst-4-en-3-one, 4-amino-17β-(cyclopropylamino)androst-4-en-3-one and related compounds as C17-20 lyase and 5α-reductase” (Merrell Dow Pharmaceuticals Inc., priority 1994, dated 1996)
